In patent US6340702B1 (priority 1996, dated 2002):
“And” between values parts separate entries of the source, which are not always exact repeats. Identical values can stand only once. Counter-ions that a name gives are not always drawn. Like-named read-outs stand apart in the source and are kept apart here.

Tests used:
[1] = test system: mouse-acclimated influenza virus A/PR/8/34 strain; design: species or system mice (BALB/C); conditions: in vivo
[2] = test system: mouse-acclimated influenza virus A/PR/8/34 strain; design: species or system mice (BALB/C); conditions: in vivo; remark: listed apart in the source
[3] = test system: mouse-acclimated influenza virus A/PR/8/34 strain; design: species or system mice (BALB/C); conditions: in vivo; remark: listed apart in the source
[4] = test system: Influenza virus strain A/Yamagata/32189(H1N1); assay: microbe, parasite or virus in culture; type: cell-based
[5] = biological target: crude influenza virus sialidase (Influenza A virus, UniProt P03468); conditions: Table 5; absorbance at 415 nm reduced by 50%, pH 6.5, 37° C., 20 minutes
Chain of crude influenza virus sialidase (P03468 whole entry, looked up): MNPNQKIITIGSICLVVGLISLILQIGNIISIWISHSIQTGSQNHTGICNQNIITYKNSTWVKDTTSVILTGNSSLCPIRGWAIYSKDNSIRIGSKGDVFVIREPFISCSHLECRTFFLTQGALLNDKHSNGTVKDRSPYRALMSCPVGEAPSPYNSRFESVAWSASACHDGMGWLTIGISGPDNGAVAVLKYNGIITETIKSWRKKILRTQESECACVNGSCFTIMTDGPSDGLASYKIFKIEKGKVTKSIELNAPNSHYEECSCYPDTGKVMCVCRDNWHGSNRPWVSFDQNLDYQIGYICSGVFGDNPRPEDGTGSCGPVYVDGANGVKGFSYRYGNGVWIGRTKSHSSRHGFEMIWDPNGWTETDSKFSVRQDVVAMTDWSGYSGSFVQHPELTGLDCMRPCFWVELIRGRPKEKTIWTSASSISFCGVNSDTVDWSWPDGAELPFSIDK
Procedure: In this experiment, a sample of influenza virus strain A/PR/8/34(H1N1) was dissolved by means of a surfactant, after which the virus membrane fraction was purified by centrifugation.
An enzyme solution was first prepared such that the final enzyme activity was 0.001 1 units/ml (1 unit corresponds to that amount of enzyme which hydrolyzes 1 μmole of substrate in 1 minute). Also prepared beforehand were aqueous solutions of test compound in various concentrations; an aqueous solution of the substrate to a concentration of 33 μg/ml, and a 20 mM 2-(N-morpholino)-ethanesulfonic acid buffer (pH 6.5) containing 50 mM calcium chloride. These solutions were combined to prepare a mixture having a final volume of 150 μl, and which was then left to stand at 37° C. for 20 minutes.

## CC(=O)NC1C(NC(=N)N)C=C(C(=O)O)O[C@H]1C(O)C(O)CO (stereo partly drawn) [Compound A, reference compound]
[1]
  number of surviving mice divided by the number of test mice, Day 8: one
[2]
  number of surviving mice divided by the number of test mice, Day 3: 3/7
  number of surviving mice divided by the number of test mice, Day 10: dead
[3]
  number of surviving mice divided by the number of test mice, Day 10: dead
[4]; unidentified influenza virus, H1N1, MDCK, 40 h, Table 3, plaque number reduced to 50%, MDCK cells
  IC50: 4.7 nM
[4]; unidentified influenza virus, H1N1, MDCK, 40 h, Table 4, plaque number reduced to 50%, MDCK cells
  IC50: 11 nM

## CCCCCCCCCCCCCCOC(=O)C1=CC(NC(=N)N)C(NC(C)=O)[C@H](C(O)C(O)CO)O1.O=C(O)C(F)(F)F (stereo partly drawn) [Example 1′, Myristyl 5-acetamido-2,3,4,5-tetradeoxy-4-guanidino-D-glycero-D-galacto-non-2-enopyranosoate trifluoroacetic acid salt]
[2]
  influenza infection therapeutic effects compared with Compound A: superior to those of Compound A
  number of surviving mice divided by the number of test mice, Day 3: 5/8
  number of surviving mice divided by the number of test mice, Day 6: 8/8
[3]
  influenza infection therapeutic effects compared with Compound A: superior to those of Compound A
  number of surviving mice divided by the number of test mice, Day 8: 4/12

## CCCCCCOC(=O)C1=CC(NC(=N)N)C(NC(C)=O)[C@H](C(O)C(O)CO)O1.O=C(O)C(F)(F)F (stereo partly drawn) [Example 2′, Hexyl 5-acetamido-2,3,4,5-tetradeoxy-4-guanidino-D-glycero-D-galacto-non-2-enopyranosoate trifluoroacetic acid salt]
[2]
  influenza infection therapeutic effects compared with Compound A: superior to those of Compound A
  number of surviving mice divided by the number of test mice, Day 3: 2/8
  number of surviving mice divided by the number of test mice, Day 6: 8/8
[2]; trifluoroacetic acid salt
  number of surviving mice divided by the number of test mice, Day 10: 1 and 1/8

## CCCCCCCCCCCCCC(=O)OCC(O)C(O)[C@@H]1OC(C(=O)O)=CC(NC(=N)N)C1NC(C)=O.O=C(O)C(F)(F)F (stereo partly drawn) [Example 3′, 5-Acetamido-2,3,4,5-tetradeoxy-4-guanidino-9-O-myristoyl-D-glvcero-D-galacto-non-2-enopyranosoic acid trifluoroacetic acid salt]
[1]
  number of surviving mice divided by the number of test mice, Day 6: 10/10
  number of surviving mice divided by the number of test mice, Day 8: 10/10

## CCCCCC(=O)OCC(O)C(O)[C@@H]1OC(C(=O)O)=CC(NC(=N)N)C1NC(C)=O.O=C(O)C(F)(F)F (stereo partly drawn) [Example 4′, 5-Acetamido-2,3,4,5-tetradeoxy-4-guanidino-9-O-hexanoyl-D-glycero-D-galacto-non-2-enopyranosoic acid trifluoroacetic acid salt]
[1]
  number of surviving mice divided by the number of test mice, Day 6: 10/10
  number of surviving mice divided by the number of test mice, Day 8: 6/10

## CCCCCCCC(=O)OCC(O)C(O)[C@@H]1OC(C(=O)O)=CC(NC(=N)N)C1NC(C)=O.O=C(O)C(F)(F)F (stereo partly drawn) [Example 5′, 5-Acetamido-2,3,4,5-tetradeoxy-4-guanidino-9-O-octanoyl-D-glycero-D-galacto-non-2-enopyranosoic acid trifluoroacetic acid salt]
[1]
  number of surviving mice divided by the number of test mice, Day 6: 11/11
  number of surviving mice divided by the number of test mice, Day 8: 10/11

## CCCCCCCCCC(=O)OCC(O)C(O)[C@@H]1OC(C(=O)O)=CC(NC(=N)N)C1NC(C)=O.O=C(O)C(F)(F)F (stereo partly drawn) [Example 6′, 5-Acetamido-2,3,4,5-tetradeoxy-4-guanidino-9-O-decanoyl-D-glycero-D-galacto-non-2-enopyranosoic acid trifluoroacetic acid salt]
[1]
  number of surviving mice divided by the number of test mice, Day 6: 11/11
  number of surviving mice divided by the number of test mice, Day 8: 10/11

## CCCCCCCCCCCCCCCC(=O)OCC(O)C(O)[C@@H]1OC(C(=O)O)=CC(NC(=N)N)C1NC(C)=O.O=C(O)C(F)(F)F (stereo partly drawn) [Example 7′, 5-Acetamido-2,3,4,5-tetradeoxy-4-guanidino-9-O-palmitoyl-D-glycero-D-galacto-non-2-enopyranosoic acid trifluoroacetic acid salt]
[1]
  number of surviving mice divided by the number of test mice, Day 6: 10/10
  number of surviving mice divided by the number of test mice, Day 8: 3/10

## CCCCCCCCCCCC(=O)OCC(O)C(O)[C@@H]1OC(C(=O)O)=CC(NC(=N)N)C1NC(C)=O.O=C(O)C(F)(F)F (stereo partly drawn) [Example 8′, 5-Acetamido-2,3,4,5-tetradeoxy-4-guanidino-9-O-dodecanoyl-D-glycero-D-galacto-non-2-enopyranosoic acid trifluoroacetic acid salt]
[1]
  number of surviving mice divided by the number of test mice, Day 6: 11/11
  number of surviving mice divided by the number of test mice, Day 8: 2/11

## CCCCCCCCCCCCCCCCCC(=O)OCC(O)C(O)[C@@H]1OC(C(=O)O)=CC(NC(=N)N)C1NC(C)=O.O=C(O)C(F)(F)F (stereo partly drawn) [Example 9′, 5-Acetamido-2,3,4,5-tetradeoxy-4-guanidino-9-O-octadecanoyl-D-glycero-D-galacto-non-2-enopyranosoic acid trifluoroacetic acid salt]
[1]
  number of surviving mice divided by the number of test mice, Day 6: 10/10
  number of surviving mice divided by the number of test mice, Day 8: 4/10

## CCCCCCCCCCCCCCCCOC(=O)C1=CC(NC(=N)N)C(NC(C)=O)[C@H](C(O)C(O)CO)O1.O=C(O)C(F)(F)F (stereo partly drawn) [Example 10′, Cetyl 5-acetamido-2,3,4,5-tetradeoxy-4-guanidino-D-glycero-D-galacto-non-2-enopyranosoate trifluoroacetic acid salt]
[3]
  influenza infection therapeutic effects compared with Compound A: superior to those of Compound A
  number of surviving mice divided by the number of test mice, Day 8: 10/12

## CCCCCCCCCCCCCCCCCCOC(=O)C1=CC(NC(=N)N)C(NC(C)=O)[C@H](C(O)C(O)CO)O1.O=C(O)C(F)(F)F (stereo partly drawn) [Example 11′, Stearyl 5-acetamido-2,3,4,5-tetradeoxy-4-guanidino-D-glycero-D-galacto-non-2-enopyranosoate trifluoroacetic acid salt]
[3]
  influenza infection therapeutic effects compared with Compound A: superior to those of Compound A
  number of surviving mice divided by the number of test mice, Day 8: 11/11

## CO[C@@H]([C@@H]1OC(C(=O)O)=C[C@H](N=C(N)N)[C@H]1NC(C)=O)[C@H](O)CO [Example 28, 5-Acetamido-4-guanidino-2,3,4,5,7-pentadeoxy-7-methoxy-D-glycero-D-galacto-non-2-enopyranosoic acid trifluoroacetic acid salt]
[4]; read-out: IC50
  IC50: 1.7 nM

## CCO[C@@H]([C@@H]1OC(C(=O)O)=C[C@H](N=C(N)N)[C@H]1NC(C)=O)[C@H](O)CO [Example 30, 5-Acetamido-4-guanidino-2,3,4,5,7-pentadeoxy-7-ethoxy-D-glycero-D-galacto-non-2-enoic acid trifluoroacetic acid salt]
[4]; read-out: IC50
  IC50: 0.8 nM
[5]
  IC50: 7 nM
